The values that follow come from patent US9618501B2, “Three-dimensional fibrous scaffolds for cell culture” (University of South Florida, priority 2012, dated 2017).

Type in all cases: cell-based
Assay [1] relates to MCF-7 cells. Description: Dose dependent cytotoxic response of MCF-7 cells, monolayer vs 3P scaffold (calcein AM/ethidium live cell count). The following applies: for IC50: Homo sapiens, MCF7, 48 h, 48 hours of drug; for IC50 for 3P cultures relative to monolayer cultures: MCF7 cells, 3P scaffold vs monolayer. How it is done:
MCF cells (7×10^3) were cultured on monolayer and 3P scaffold for 7 days then treated with different concentration of LY294002 and U0126 for 48 hours. Cells were stained with calcein/am and ethydium bromide then counted. Mean percentage of live cells (+/−SEM) were plotted as a function of drug concentration on and represents 4 replicates in 3 separate experiments. Box data points indicate monolayer and diamond data points indicate 3P scaffold.
To further explore the utility of the 3P scaffold as a tool to monitor chemotherapeutic prevention of EMT, MCF-7 breast cancer cells were treated with Doxorubicin and Ly294002 and U0126 inhibitors to prevent spheroid formation and examined for a differential dose-dependent response which was compared with response in monolayer 2D culture. […] The IC-50 of a drug is defined as the […] of a drug to inhibit biological or biochemical function.

For assay [2], the system named is MCF-7 cells. Description: Inhibition of spheroid formation and EMT markers in MCF-7 cells on 3P scaffold. How it is done:
(§1) To determine if treatment by these agents would deregulate EMT in fully formed spheroids, the same concentration of drugs were administered to LLC spheroids cultured at day 4.

The subject of assay [3] is LLC spheroids. As to the kind of experiment: EMT marker expression in fully formed LLC spheroids treated at day 4. The method, then:
as §1

Assay [4] has as its system biopsy induced tumoroids (BITs). As to the kind of experiment: Chemosensitivity of biopsy induced tumoroids (BITs) from FNAs of implanted LLC1 mouse tumors on 3P scaffolds. The following applies: for IC50: Mus musculus, LLC1. The method, then:
FIG. 17 illustrates biopsy tumoroids (day 2) treated with 1 μM each of LY294002 or U0126 for 3 days. The average size of biopsy tumoroids on 3P scaffolds (n=10 controls, 55 LY294002 and 50 U0126) is shown.
Culturing fine needle aspirates (FNAs) of implanted mouse tumors: LLC1 cells (5×10^5) were subcutaneously injected into the flanks of wild type C57BL/6 mice (National Cancer Institute). Tumor formation was monitored for 2 weeks after which tumor biopsies were collected by fine needle aspiration. Briefly, a 23-gauge needle was inserted into the tumor using a rotating motion and the tissue samples were flushed from the needle by attaching a syringe filled with tissue culture medium and expelling the contents into a sterile tube. This process was repeated twice. The three collected tumor samples were pooled and single cell suspensions were cultured on the scaffold.
Chemosensitivity of tumor biopsies grown on 3P scaffolds: To determine if the 3P scaffold can be utilized to culture tumor biopsies, single-cell suspensions of FNAs of implanted mouse tumors were cultured on 3P scaffolds. […] In addition to tumor cells, BITs were examined for the presence of stromal cells that are typical of in vivo tumor microenvironment (TME) (Mallela et al., (2013) Stem Cells 31: 1321-1329) by immunostaining with antibodies to respective cell surface markers.
To determine if the biopsy tumoroids cultured on 3P scaffolds can be utilized to assess drug sensitivity, FNA tumoroids were cultured in the presence or absence of the inhibitors, LY294002 and U0126.

In assay [5] the test system is tumor cells. Description: Doxorubicin sensitivity of tumor cells grown on 3PC scaffolds vs monolayer. How it is done:
It was also determined that PLGA naked scaffolds are biocompatible and show increased tumorigenesis potential. From these observations, one can conclude that these 3D matrices can be used as a model to study cancer.

Assay [6] has as its system LLC spheroids. As to the kind of experiment: Drug efficacy on LLC spheroids grown on 3P scaffold (spheroid size and number). How it is done:
Drug efficacy analysis using 3P scaffold: To assess the ability of the 3P scaffold to monitor therapeutic efficacy to treat tumors, LLC spheroids were treated with different concentrations of the PI3K pathway inhibitor Ly294002 (1.0 μM, 0.1 μM, and 0.01 μM) and spheroid viability was assessed over a time period of 24 hours to 96 hours.

Where [7] appears, read: MCF-7 on 3P scaffold, read-out: IC-50.
[8] abbreviates: MCF-7 on monolayer, read-out: IC-50.
Where [9] appears, read: 0.01 μM, 24 hours post treatment.
Setting [10] is: 0.01 μM, 96 hours post treatment.
The mark [11] stands for this setting: 0.1 μM, 24 hours post treatment.
[12] abbreviates: 1.0 μM, 24 hours post treatment.

Like-named read-outs stand apart in the source and are kept apart here. Where only a bound is given, the exact number is not on record here.

On to `N#CC(=C(/N)Sc1ccccc1N)/C(C#N)=C(\N)Sc1ccccc1N` [U0126], for which the IC50 in assay [1] (MCF-7 on 3P scaffold) is 106 nM; in assay [1] (MCF-7 on monolayer), 10.6 nM; in assay [4], over 1000 nM. In assay [1], the “IC50 for 3P cultures relative to monolayer cultures” value is given as 100 fold. Further, the “spheroid formation and proliferation on 3P scaffolds” value in assay [2] (MCF-7 treated after 24 hours of culture, observed on day 4) is “prevented spheroid formation and proliferation”. In assay [2] (cells on 3P scaffold treated after 24 hours of culture), the “vimentin and E-cadherin expression” value is on record as “down regulating vimentin while maintaining E-cadherin expression”. Further, the “vimentin and E-cadherin expression (EMT inhibition)” value in assay [3] was “lack of vimentin expression and a concomitant expression of E-cadherin”. Moreover, the “growth of BITs” value in assay [4] (FNA tumoroids on 3P scaffold cultured with inhibitor) is “decreases in tumoroid size”.

Turning to `COc1cccc2c1C(=O)c1c(O)c3c(c(O)c1C2=O)C[C@@](O)(C(=O)CO)C[C@@H]3O[C@H]1C[C@H](N)[C@H](O)[C@H](C)O1` [doxorubicin], the figures for the IC50 in assay [1] (setting [7]) and in assay [1] (setting [8]) were 12000 nM and 600 nM, respectively. Also, the “sensitivity of tumor cells compared to cells grown on monolayer” value in assay [5] is “less sensitive”.

Turning to `O=c1cc(N2CCOCC2)oc2c(-c3ccccc3)cccc12` [LY294002], the “average decrease in spheroid size compared to untreated spheroids” value in assay [6] (setting [9]) is reported as 17+/−12.5%; in assay [6] (setting [11]), 22.0+/−10.9%; in assay [6] (setting [12]), 37.3+/−8.4%. Further, the “decrease in spheroid numbers” value is 14.5+/−8.52% in assay [6] (setting [9]); 40.3+/−2.44% in assay [6] (0.01 μM, 48 hours); 93.3+/−0.48% in assay [6] (setting [10]); 26.8+/−4.38% in assay [6] (setting [11]); 52.6+/−2.93% in assay [6] (0.1 μM, 48 hours); 37.4+/−3.8% in assay [6] (setting [12]). In assay [6] (1.0 μM, 48 hours), the “decrease in spheroid numbers” value is 61.7+/−2.92%. Also, the “average decrease in spheroid size” value in assay [6] (0.01 μM, 48 hours post treatment) is 28.9+/−9.3%; in assay [6] (setting [10]), 63+/−5.9%; in assay [6] (0.1 μM, 48 hours post treatment) it was 32.6+/−5.97%; in assay [6] (1.0 μM, 48 hours post treatment), 51.2+/−6.73%. The IC50 is 1150 nM in assay [1] (setting [7]); 130 nM in assay [1] (setting [8]); over 1000 nM in assay [4] (biopsy tumoroids (BITs) on 3P scaffold, read-out: IC50). For the same compound, in assay [1], the “IC50 for 3P cultures relative to monolayer cultures” value is 10 fold.
